This test deals with T1, BRAF V600E (Homo sapiens, UniProt P15056+Q96SW2, V600E).
T1 construct: knock-in of the HiBiT tag to the endogenous BRAF V600E locus; host or cells: A375.10 (A375 clonal line, CRISPR HiBiT knock-in at the endogenous BRAF V600E locus)
In words: BRAF V600E HiBiT Degradation Assay. It counts as cell-based. The method, boiled down: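 Endogenous HiBiT knock-in on BRAF V600E in A375 cells (clone A375.10); 11-point half-log series, top 10 μM, 2, 6 or 24 h at 37° C. Lytic HiBiT luminescence, background-subtracted, normalized to DMSO; 4-parameter fit gives DC50, Emax (residual protein) and IP (inflection point).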

Where [1] appears, read: A375.10 cells, BRAF V600E, 2 hours, inflection point, read-out: HiBiT-Degradation A375.10 BRAF 2 hours IP.
The mark [2] stands for this setting: A375.10 cells, BRAF V600E, 2 hours, read-out: HiBiT-Degradation A375.10 BRAF 2 hours DC50.
Where [3] appears, read: A375.10 cells, BRAF V600E, 6 hours, inflection point, read-out: HiBiT-Degradation A375.10 BRAF 6 hours IP.
Setting [4] is: A375.10 cells, BRAF V600E, 6 hours, read-out: HiBiT-Degradation A375.10 BRAF 6 hours DC50.
Setting [5] is: A375.10 cells, BRAF V600E, 6 hours, residual protein remaining, read-out: HiBiT-Degradation A375.10 BRAF 6 hours Emax.
Setting [6] is: A375.10 cells, HiBiT, BRAF V600E, 24 hours, read-out: HiBiT-Degradation A375.10 BRAF 24 hours DC50.
The mark [7] stands for this setting: A375.10 cells, HiBiT, BRAF V600E, 24 hours, read-out: HiBiT-Degradation A375.10 BRAF 24 hours Emax.
Setting [8] is: A375.10 cells, HiBiT, BRAF V600E, 24 hours, read-out: HiBiT-Degradation A375.10 BRAF 24 hours IP.
Setting [9] is: read-out: HiBiT-Degradation A375.10 BRAF 2 hours Emax, A375.10 cells, BRAF V600E, 2 hours, residual protein remaining.
The mark [10] stands for this setting: A375.10 cells, BRAF V600E, 2 hours, residual protein remaining, read-out: HiBiT-Degradation A375.10 BRAF 2 hours Emax.

Each structure is given as a SMILES string. Where two headings read alike, the source gives them in different places. A value given as a limit tells only on which side of the number the result lay.

One may read the Emax as the size of the effect at its maximum, as opposed to the concentration needed.

T1 sequence (P15056 whole entry V600E): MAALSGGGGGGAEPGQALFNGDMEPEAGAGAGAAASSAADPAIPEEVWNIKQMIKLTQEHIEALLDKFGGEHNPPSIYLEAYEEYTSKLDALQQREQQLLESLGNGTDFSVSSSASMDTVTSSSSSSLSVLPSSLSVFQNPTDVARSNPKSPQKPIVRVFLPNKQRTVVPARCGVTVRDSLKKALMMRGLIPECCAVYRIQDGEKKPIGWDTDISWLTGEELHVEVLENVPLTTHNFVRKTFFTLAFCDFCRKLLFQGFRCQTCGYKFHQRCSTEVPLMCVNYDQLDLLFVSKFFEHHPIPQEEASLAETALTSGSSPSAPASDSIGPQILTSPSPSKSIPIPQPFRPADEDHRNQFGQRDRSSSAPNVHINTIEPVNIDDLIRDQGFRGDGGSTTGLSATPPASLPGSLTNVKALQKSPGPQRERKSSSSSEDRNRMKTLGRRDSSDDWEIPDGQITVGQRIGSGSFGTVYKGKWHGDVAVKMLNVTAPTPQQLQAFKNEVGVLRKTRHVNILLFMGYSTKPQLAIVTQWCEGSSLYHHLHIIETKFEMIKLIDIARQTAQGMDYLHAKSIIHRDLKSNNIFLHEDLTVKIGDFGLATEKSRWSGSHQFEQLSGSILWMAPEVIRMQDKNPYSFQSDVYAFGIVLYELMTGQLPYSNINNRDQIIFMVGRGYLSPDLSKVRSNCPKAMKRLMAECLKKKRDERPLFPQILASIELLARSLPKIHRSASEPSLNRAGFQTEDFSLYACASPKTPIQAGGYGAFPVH
T1 sequence (Q96SW2 whole entry): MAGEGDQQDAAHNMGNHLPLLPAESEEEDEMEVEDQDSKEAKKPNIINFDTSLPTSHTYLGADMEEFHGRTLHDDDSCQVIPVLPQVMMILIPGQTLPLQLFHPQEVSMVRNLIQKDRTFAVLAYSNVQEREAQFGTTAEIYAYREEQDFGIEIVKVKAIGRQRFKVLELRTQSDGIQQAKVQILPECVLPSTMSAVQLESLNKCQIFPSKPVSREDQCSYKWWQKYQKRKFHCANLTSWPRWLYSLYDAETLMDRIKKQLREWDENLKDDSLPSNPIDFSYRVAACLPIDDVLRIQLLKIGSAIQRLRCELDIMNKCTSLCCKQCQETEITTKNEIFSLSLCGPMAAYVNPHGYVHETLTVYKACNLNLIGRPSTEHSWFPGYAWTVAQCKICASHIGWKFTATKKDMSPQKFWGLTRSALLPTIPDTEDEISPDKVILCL
T1 sequence (Q16531 whole entry partner): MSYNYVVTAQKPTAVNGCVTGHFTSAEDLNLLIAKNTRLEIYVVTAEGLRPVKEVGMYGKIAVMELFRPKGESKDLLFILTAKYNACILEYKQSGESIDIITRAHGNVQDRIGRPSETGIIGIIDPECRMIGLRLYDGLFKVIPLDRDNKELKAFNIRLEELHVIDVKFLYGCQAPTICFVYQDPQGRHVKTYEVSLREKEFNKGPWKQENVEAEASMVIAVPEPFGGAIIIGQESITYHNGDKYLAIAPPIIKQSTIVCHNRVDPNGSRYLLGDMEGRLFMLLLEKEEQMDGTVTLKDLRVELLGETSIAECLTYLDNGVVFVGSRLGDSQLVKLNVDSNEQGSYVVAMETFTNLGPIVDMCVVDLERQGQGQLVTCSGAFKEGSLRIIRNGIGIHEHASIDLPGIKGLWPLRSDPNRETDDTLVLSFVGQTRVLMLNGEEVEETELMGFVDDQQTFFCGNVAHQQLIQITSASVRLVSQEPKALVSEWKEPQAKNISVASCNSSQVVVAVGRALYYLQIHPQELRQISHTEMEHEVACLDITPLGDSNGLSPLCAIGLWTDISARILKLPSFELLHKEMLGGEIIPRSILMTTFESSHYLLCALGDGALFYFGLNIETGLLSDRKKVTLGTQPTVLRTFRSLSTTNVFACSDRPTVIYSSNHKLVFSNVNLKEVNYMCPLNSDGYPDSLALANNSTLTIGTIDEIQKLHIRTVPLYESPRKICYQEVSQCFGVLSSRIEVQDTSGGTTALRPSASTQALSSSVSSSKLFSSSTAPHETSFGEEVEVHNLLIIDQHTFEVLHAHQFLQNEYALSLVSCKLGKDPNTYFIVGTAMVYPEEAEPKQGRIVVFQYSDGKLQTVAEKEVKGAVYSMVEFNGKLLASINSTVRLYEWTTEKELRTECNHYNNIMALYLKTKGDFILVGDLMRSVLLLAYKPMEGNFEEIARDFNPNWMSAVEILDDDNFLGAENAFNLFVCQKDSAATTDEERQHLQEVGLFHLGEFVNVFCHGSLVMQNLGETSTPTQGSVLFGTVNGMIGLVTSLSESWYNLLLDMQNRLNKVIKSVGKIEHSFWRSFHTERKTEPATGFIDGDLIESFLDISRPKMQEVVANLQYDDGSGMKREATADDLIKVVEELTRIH

For `CO[C@H]1CCN(S(=O)(=O)Nc2ccc(F)c(Oc3ccc4ncn([C@H]5COC6(CCN(C7CC8(C7)CN(c7cc9c(cc7F)c(N7CCC(=O)NC7=O)nn9C)C8)CC6)C5)c(=O)c4c3)c2C#N)C1` [Compound 157, (3S)-N-[2-cyano-3-[3-[(3R)-8-[2-[3-(2,4-dioxohexahydropyrimidin-1-yl)-5-fluoro-1-methyl-indazol-6-yl]-2-azaspiro[3.3]heptan-6-yl]-1-oxa-8-azaspiro[4.5]decan-3-yl]-4-oxo-quinazolin-6-yl]oxy-4-fluoro-phenyl]-3-methoxy-pyrrolidine-1-sulfonamide], the DC50 was under 1000 nM under setting [1]; under 1000 nM under setting [2]; under 1000 nM under setting [3]; under 1000 nM under setting [4]; under 1000 nM under setting [6]; under 1000 nM under setting [8]. Besides, the Emax under setting [5] was under 50%, the Emax under setting [7] was under 50% and the maximal response (Emax) under setting [9] is 50 to 90%.
For the compound `CCN(C)S(=O)(=O)Nc1ccc(F)c(Oc2ccc3ncn([C@@H]4C[C@@H]5CN(C6CCC(c7ccc(NC8CCC(=O)NC8=O)cc7F)CC6)C[C@@H]5C4)c(=O)c3c2)c1C#N` (single isomer, unassigned) [Compound 21], the DC50 is, setting by setting: under setting [1], under 1000 nM; under setting [2], under 1000 nM; under setting [3], under 1000 nM; under setting [4], under 1000 nM; under setting [6], under 1000 nM; under setting [8], under 1000 nM. The Emax under setting [10] is under 50%, the Emax under setting [5] was under 50% and the Emax under setting [7] was under 50%.
With `CC(C)S(=O)(=O)Nc1ccc(F)c(Oc2ccc3ncn([C@H]4COC5(CCN(C6CCC(c7ccc(NC8CCC(=O)NC8=O)cc7F)CC6)CC5)C4)c(=O)c3c2)c1C#N` (single isomer, unassigned) [Compound 92], the DC50 by setting is: under setting [1], under 1000 nM; under setting [2], under 1000 nM; under setting [3], under 1000 nM; under setting [4], under 1000 nM; under setting [6], under 1000 nM; under setting [8], under 1000 nM. The maximum response (Emax) runs as follows: under setting [10], under 50%; under setting [5], under 50%; under setting [7], under 50%.
Consider `CCN(C)S(=O)(=O)Nc1ccc(F)c(Oc2ccc3ncc(OC4CCN(C5CCC(c6ccc(NC7CCC(=O)NC7=O)cc6F)CC5)CC4)nc3c2)c1C#N` (single isomer, unassigned) [Compound 110, 7-[2-cyano-3-[[ethyl(methyl)sulfamoyl]amino]-6-fluoro-phenoxy]-2-[[1-[4-[4-[(2,6-dioxo-3-piperidyl)amino]-2-fluoro-phenyl]cyclohexyl]-4-piperidyl]oxy]quinoxaline], for which the DC50 is, setting by setting: under setting [1], under 1000 nM; under setting [2], under 1000 nM; under setting [3], under 1000 nM; under setting [4], under 1000 nM; under setting [6], under 1000 nM; under setting [8], under 1000 nM. For the same compound, the Emax by setting is: under setting [10], 50 to 90%; under setting [5], under 50%; under setting [7], under 50%.
`CCN(C)S(=O)(=O)Nc1ccc(F)c(Oc2ccc3ncc(C4CC5(CCN(C6CCC(c7cc8c(cc7F)c(N7CCC(=O)NC7=O)nn8C)CC6)CC5)C4)nc3c2)c1C#N` (single isomer, unassigned) [Compound 180, 7-[2-cyano-3-[[ethyl(methyl)sulfamoyl]amino]-6-fluoro-phenoxy]-2-[7-[4-[3-(2,4-dioxohexahydropyrimidin-1-yl)-5-fluoro-1-methyl-indazol-6-yl]cyclohexyl]-7-azaspiro[3.5]nonan-2-yl]quinoxaline]: the DC50 under setting [1] is under 1000 nM; the DC50 under setting [2] was under 1000 nM; the DC50 under setting [3] was under 1000 nM; the DC50 under setting [4] is under 1000 nM; the DC50 under setting [6] is under 1000 nM; the DC50 under setting [8] was under 1000 nM. The Emax was under 50% under setting [5], under 50% under setting [7] and under 50% under setting [9].
As for `CCN(C)S(=O)(=O)Nc1ccc(F)c(Oc2ccc3ncn([C@H]4COC5(CCN(C6CC7(C6)CN(c6ccc(NC8CCC(=O)NC8=O)cc6F)C7)CC5)C4)c(=O)c3c2)c1C#N` (stereo partly drawn) [Compound 35, (3R)-3-[6-[2-cyano-3-[[ethyl(methyl)sulfamoyl]amino]-6-fluoro-phenoxy]-4-oxo-quinazolin-3-yl]-8-[2-[4-[(2,6-dioxo-3-piperidyl)amino]-2-fluoro-phenyl]-2-azaspiro[3.3]heptan-6-yl]-1-oxa-8-azaspiro[4.5]decane], the DC50 runs as follows: under setting [1], under 1000 nM; under setting [2], under 1000 nM; under setting [3], under 1000 nM; under setting [4], under 1000 nM; under setting [6], under 1000 nM; under setting [8], under 1000 nM. Moreover, the maximal effect (Emax) runs as follows: under setting [10], under 50%; under setting [5], under 50%; under setting [7], under 50%.
`CCN(C)S(=O)(=O)Nc1ccc(F)c(Oc2ccc3ncn([C@H]4COC5(CCN(C6CCC(c7ccc(N[C@@H]8CCC(=O)NC8=O)cc7F)CC6)CC5)C4)c(=O)c3c2)c1C#N` (single isomer, unassigned) [Compound 4]: the DC50 by setting is: under setting [1], under 1000 nM; under setting [2], under 1000 nM; under setting [3], under 1000 nM; under setting [4], under 1000 nM; under setting [6], under 1000 nM; under setting [8], under 1000 nM. Further, the Emax runs as follows: under setting [10], under 50%; under setting [5], under 50%; under setting [7], under 50%.
With `Cn1nc(N2CCC(=O)NC2=O)c2cc(F)c(N3CC4(CC(N5CCC6(CC5)CC(n5cnc7ccc(Oc8c(F)ccc(NS(=O)(=O)C9CC9)c8C#N)cc7c5=O)C6)C4)C3)cc21` [Compound 260, N-[2-cyano-3-[3-[7-[2-[3-(2,4-dioxohexahydropyrimidin-1-yl)-5-fluoro-1-methyl-indazol-6-yl]-2-azaspiro[3.3]heptan-6-yl]-7-azaspiro[3.5]nonan-2-yl]-4-oxo-quinazolin-6-yl]oxy-4-fluoro-phenyl]cyclopropanesulfonamide], the DC50 (read-out: HiBiT-Degradation A375.10 BRAF 2 hours DC50, A375.10 cells, BRAF V600E, 2 hours) is under 1000 nM and the DC50 (read-out: HiBiT-Degradation A375.10 BRAF 2 hours IP, A375.10 cells, BRAF V600E, 2 hours, inflection point) was under 1000 nM. Besides, the Emax under setting [9] is under 50%.
For `CCN(C)S(=O)(=O)Nc1ccc(F)c(Oc2ccc3ncn([C@@H]4COC5(CCN(C6CCC(c7ccc(NC8CCC(=O)NC8=O)cc7F)CC6)CC5)C4)c(=O)c3c2F)c1C#N` (single isomer, unassigned) [Compound 52], the DC50 under setting [1] was under 1000 nM; the DC50 under setting [2] was under 1000 nM; the DC50 under setting [3] was under 1000 nM; the DC50 under setting [4] was under 1000 nM; the DC50 under setting [6] is under 1000 nM; the DC50 under setting [8] was under 1000 nM. Further, the Emax is, setting by setting: under setting [10], under 50%; under setting [5], under 50%; under setting [7], under 50%.
In the case of `CC(C)S(=O)(=O)Nc1ccc(F)c(Oc2ccc3ncn(C4CC5(CCN(C6CCC(c7cc8c(cc7F)c(N7CCC(=O)NC7=O)nn8C)CC6)CC5)C4)c(=O)c3c2)c1C#N` (single isomer, unassigned) [Compound 95, N-[2-cyano-3-[3-[7-[4-[3-(2,4-dioxohexahydropyrimidin-1-yl)-5-fluoro-1-methyl-indazol-6-yl]cyclohexyl]-7-azaspiro[3.5]nonan-2-yl]-4-oxo-quinazolin-6-yl]oxy-4-fluoro-phenyl]propane-2-sulfonamide], the DC50 reads like this: under setting [1], under 1000 nM; under setting [2], under 1000 nM; under setting [3], under 1000 nM; under setting [4], under 1000 nM; under setting [6], under 1000 nM; under setting [8], under 1000 nM. Besides, the Emax under setting [10] was under 50%, the Emax under setting [5] is under 50% and the Emax under setting [7] was under 50%.
On to `CCN(C)S(=O)(=O)Nc1ccc(F)c(Oc2ccc3ncn(C4CC5(CCN(C6CCC(c7cc8c(cc7F)c(N7CCC(=O)NC7=O)nn8C)CC6)CC5)C4)c(=O)c3c2)c1C#N` (single isomer, unassigned) [Compound 8, 6-[2-cyano-3-[[ethyl(methyl)sulfamoyl]amino]-6-fluoro-phenoxy]-3-[7-[4-[3-(2,4-dioxohexahydropyrimidin-1-yl)-5-fluoro-1-methyl-indazol-6-yl]cyclohexyl]-7-azaspiro[3.5]nonan-2-yl]-4-oxo-quinazoline], for which the DC50 was under 1000 nM under setting [1]; under 1000 nM under setting [2]; under 1000 nM under setting [3]; under 1000 nM under setting [4]; under 1000 nM under setting [6]; under 1000 nM under setting [8]. Also, under setting [10], the Emax was under 50%. Also, the “HiBiT-Degradation A375.10 BRAF 6 hours Emax” value (A375.10 cells, BRAF V600E, 6 hours, residual protein remaining) is “*** (<=50%)”. Also, the “HiBiT-Degradation A375.10 BRAF 24 hours Emax” value (A375.10 cells, HiBiT, BRAF V600E, 24 hours) is “*** (<=50%)”.

The record behind these values is patent US20260297060A1, “COMPOUNDS FOR THE DEGRADATION OF MUTANT BRAF” (C4 THERAPEUTICS, INC., priority 2023, published 2026).
